Measured values from patent publication US6699849B1, “Cyclodextrin complexes of benzodiazepines” (Cyclops, ehf., priority 1998, dated 2004).
Values after ≈ are worked out from the molar mass of the structure shown. Read-outs that look alike come from different tables or passages of the source.

Legend:
[1] = type: physicochemical
Text: It is possible to enhance the cyclodextrin (CD) complexation efficacy, or efficiency, of drugs (D), and other “guest” molecules, by either increasing the apparent stability constant (KC) of the drug-cyclodextrin complex (D-CD) or increasing the apparent intrinsic solubility (S0) of the drug. For example, KC can be increased by addition of water-soluble polymers to the aqueous complexation media and S0 can be increased by ionization of the drug molecule, as described previously. […] On the other hand, if the drug-cyclodextrin complexes are prepared under conditions which ensure enhanced complexation and if the complexation efficiency decreases upon administration, then enhanced drug availability will be observed. Thus, the present invention involves: i) enhancement of the complexation efficiency and ii) reduction of the complexation efficiency after administration. For example, it is possible to enhance the complexation efficiency of many ionizable drugs by preparing the complexes at a pH where the drug is ionized but obtain decreased efficiency upon administration due to pH changes and consequent decreased ionization. One example of such a drug is phenytoin (pKa 8.1). […]

[2] = cited from earlier work; for solubility in water: room temperature (25° C.)
[3] = cited from earlier work

- solubility enhancement by 25% (w/v) 2-hydroxypropyl-β-cyclodextrin ([1]; pH 5): 280 fold
- solubility enhancement by 25% (w/v) 2-hydroxypropyl-β-cyclodextrin ([1]; pH 8): 200 fold
SMILES: O=C1NC(=O)C(c2ccccc2)(c2ccccc2)N1 [phenytoin, 5,5-diphenyl-2,4-imidazolidinedione]
- solubility with 25% (w/v) 2-hydroxypropyl-β-cyclodextrin ([2]; pH 5): 5000 µg/mL
- solubility with 25% (w/v) 2-hydroxypropyl-β-cyclodextrin ([2]; pH 8): 6400 µg/mL
- solubility in water ([2]; pH 5): 18 µg/mL (≈ 71.4 µM)
- solubility in water ([2]; pH 8): 32 µg/mL (≈ 127 µM)
- pKa [3]: 8.1
